Assay results: patent publication EP0364581A1, “METHOD OF STERILIZING PLANT POLLEN” (VSESOJUZNY NAUCHNO-ISSLEDOVATELSKY INST. SELSKOKHOZYAISTV. …, priority 1988, dated 1989)
Read-outs that look alike come from different tables or passages of the source.

Experiments:
[1] = tested on: Sommerweizens Sorte Rodina; experiment: field test of gametocidal activity (sterilisation of anthers); format: in vivo, Sommerweizen; details: V. und VI. Periode, 1%ige wäßrige Emulsion, 6 kg/ha; for Prozentsatz des Ansetzens der Körner bei freier Bestäubung: control = 100
From the text: (§1) Die gametozide Aktivität der erfindungsgemäßen Sterilisationsmittel war in Feldversuch in verschiedenen bodenklimatischen Zonen mit Teilstücken von 10 m^2 Größe in drei-- bis viermaliger Wiederholung nachgewiesen. Jedes Sterilisationsmittel wurde mindestens 5 Jahre lang geprüft.
(§2) Die Entwicklung der Perioden der Organogenese wird zytologisch überwacht. Die Behandlung von Pflanzen mit dem Sterilisationsmittel erfolgt am Anfang der fünften Periode der Organogenese nach Kupermann.
(§3) Mit dem Ahrenschieben verwirklicht man die Isolierung von Hauptähren und anderen Stockwerken in Pergamentbeuteln. Bei Weizen und Tritikale werden Einzelisolatoren verwendet. Bei Roggen schließt man je 1 Ähre von 5 bis 7 verschiedenen nebeneinander befindlichen Pflanzen in einen gemeinsamen Isolator ein. Bei Hirse wird jede Rispe getrennt isoliert. Der Sterilitätsprozentsatz (X) für Weizen, Roggen, Tritikale und Hirse wird nach der Formel [formula]
(§4) Samen von unbehandelten Kontrollpflanzen ermittelt.
(§5) Die Kornzahl in nicht isolierten Ähren von Kontrollpflanzen wird bedingt für 100% Ansetzen bei freier Bestäubung angenommen.
(§6) Um zuverlässige Angaben zu erhalten, verwendet man 20 bis 25 Isolatoren jeder Wiederholung für Weizen und Tritikale, 10 bis 15 Isolatoren jeder Wiederholung für Roggen und Hirse.
Pflanzen des Sommerweizens Sorte Rodina werden in der V. und VI. Periode der Organogenese (nach Kupermann) mit einer l%igen wäßrigen Emulsion von Ammoniumsalz der 2-Methyl-3-zyklohexenkarbonsäure, Phthalsäuredihexylester, Phthalsäurediisobutylester behandelt. Die Emulsion enthält 0,01 Masse% Dodezysulfat und 0,1 Masse% C12-C14--Kalziumalkylbenzolsulfonat. Der Verbrauch an Präparat beträgt 6 kg/ha. Als Kontrolle dienen Pflanzen, behandelt mit einem Verdünner ohne Sterilisationsmittel.

[2] = tested on: diploidem Roggen Sorte Belorusskaya 23; experiment: as above; format: in vivo; details: V. und VI. Periode, 1%ige wäßrige Emulsion, 6 kg/ha; for Prozentsatz des Ansetzens der Körner bei freier Bestäubung: control = 100
From the text: as §1, §2, §3, §4, §5, §6
Pflanzen von diploidem Roggen Sorte Belorusskaya 23 werden in der V. und VI. Periode der Organogenese (nach Kupermann) mit einer 1%igen wäßrigen Emulsion von Phthalsäuredibutylester, Kaliumsalz der 2-Methyl-3-zyklohexenkarbonsäure behandelt. Die Emulsion enthält 0,01 Masse% Dodezylsulfat, und 0,1 Masse% C12-C14-Kalziumalkylbenzolsulfonat.
Der Verbrauch an Präparat beträgt 6 kg/ha. Als Kontrolle dienen Pflanzen, behandelt mit einem Verdünner ohne Sterilisationsmittel.

[3] = tested on: Sonnenblume Sorte Peredovik; experiment: field test of chemical sterilisation of sunflower pollen; format: in vivo; details: V. Periode
From the text: as §1, §2
(§7) Zur Kontrolle der chemischen Sterilisation des Sonnenblumenpollens werden für jede Verbindung 45 behandelte Pflanzen jeder Wiederholung benutzt, wobei 15 Pflanzen zwecks Selbsbestäubung isoliert werden, Blutenkörbchen von 15 anderen Pflanzen mit einem Pollengemisch, gesammelt von 20 bis 25 behandelten isolierten Körbchen, bestäubt werden, und 15 Pflanzen für freie Bestäubung gelassen werden, damit das Ansetzen von Achänen mit dem Pollen der Vaterform kontrolliert werden kann.
(§8) Man beurteilt die Pollensterilität von Pflanzen der Sonnenblume nach der Pollenfertilität und -keimfahigkeit, nach den morphologischen Besonderheiten von Spermien und nach der Fähigkeit von Achänen zum Ansetzen bei der Bestäubung der behandelten isolierten Pflanzen mit dem Pollen der unbehandelten väterlischen Form. Die Läbensfähigkeit der Eizelle wird nach der Samenbildung bei behandelten Pflanzen bei freier Bestäubung der väterlichen Form bestimmt.
Pflanzen der Sonnenblume Sorte Peredovik werden in der V. […] Die Emulsion enthält 0,01 Masse% Dimethylsulfoxid und 0,1 Masse% C12-C14-Kalziumalkylbenzolsulfonat. Die Sonnenblume Linie VK-119 werden mit einer 0,2%igen wäßrigen Emulsion von Phthalsäuredibutylester, 0,1%igen wäßrigen Emulsion von Phthalsäurediäthylester, Kaliumsalz der 2-Methyl-3-zyklohexenkarbonsäure, 1%igen wäßrigen Emulsion von Natriumsalz der. 2-Methyl-3-zyklohexen- karbonsäure und 0,01%igen wäßrigen Emulsion von 2-Methyl--3-zyklohexenkarbonsäuremethylester behandelt. Die Emulsion enthält 0,01 Masse% Dimethylformamid und 0,1 Masse% C12-C14--Kalziumalkylbenzolsulfonat.
(§9) Als Kontrolle in allen Fällen dienen Pflanzen, behandelt mit einem Verdünner ohne Sterilisationsmittel.

[4] = tested on: Sonnenblume Linie VK-119; experiment: as above; format: in vivo; details: Linie BK-119
From the text: as §1, §2, §7, §8
Pflanzen der Sonnenblume Sorte Peredovik werden in der V. Periode der Organogenese (nach Kupermann) mit einer 0,5%igen wäßrigen Emulsion von Phthalsäuredibutylester, Phthalsäurediäthylester, Kaliumsalz der 2-Methyl-3-zyklohexenkarbonsäu- re, Natriumsalz der 2-Methyl-3-zyklohexenkarbonsäure sowie mit einer 0,05%igen wäßrigen Emulsion von 2-Methyl-3-zyklo- hexenkarbonsäuremethylester behandelt. Die Emulsion enthält 0,01 Masse% Dimethylsulfoxid und 0,1 Masse% C12-C14-Kalziumalkylbenzolsulfonat. Die Sonnenblume Linie VK-119 werden mit einer 0,2%igen wäßrigen Emulsion von Phthalsäuredibutylester, 0,1%igen wäßrigen Emulsion von Phthalsäurediäthylester, Kaliumsalz der 2-Methyl-3-zyklohexenkarbonsäure, 1%igen wäßrigen Emulsion von Natriumsalz der. 2-Methyl-3-zyklohexen- karbonsäure und 0,01%igen wäßrigen Emulsion von 2-Methyl--3-zyklohexenkarbonsäuremethylester behandelt. Die Emulsion enthält 0,01 Masse% Dimethylformamid und 0,1 Masse% C12-C14--Kalziumalkylbenzolsulfonat.
as §9

[5] = tested on: Sonnenblume Linie BK-373; experiment: as above; format: in vivo
From the text: as §1, §2, §7, §8
Die Sonnenblume Linie BK-373 werden mit einer 0,2%igen wäßrigen Emulsion von Phthalsäuredibutylester, 0,1%igen wäßrigen Emulsion von Kaliumsalz der 2-Methyl-3-zyklohexylkar- bonsäuremethylester und 0,2%igen wäßrigen Emulsion von Phthalsäurediäthylester behandelt. Die Emulsion enthält 0,01 Masse% Dodezylsulfat und 0,1 Masse% C12-C14-Kalziumalkylbenzolsulfonat.
as §9

[6] = acute toxicity in animals; parameters: species or system weiße Ratten; details: rat, in vivo
From the text: (§10) Alle erfindungsgemäßen Karbonsäurederivate, die als Sterilisationsmittel zur Verwendung kommen, waren auf die akute Toxizität im Tierversuch geprüft. Die Prüfergebnisse haben ergeben, daß die angegebenen Verbindungen von schwacher oder mittlerer Toxizität sind.

[7] = acute toxicity in animals; details: mouse, in vivo, po; weiße Mäuse; einmalige Einführung in den Magen
From the text: as §10

[8] = Präparat 0,05 Masse%, 0,3 kg/ha
[9] = Präparat 0,01 Masse%, 0,06 kg/ha

Structure (SMILES): CC1C=CCCC1C(=O)O.N (stereo not drawn) [Beispiel 34, Ammoniumsalz der 2-Methyl-3-zyklohexenkarbonsäure]
- Kornzahl der Ähre bei freier Bestäubung [1]: 30,8
- Kornzahl der Ähre im Isolator [1]: 0,0
- Prozentsatz der Sterilität [1]: 100,0%
- Prozentsatz des Ansetzens der Körner bei freier Bestäubung [1]: 84,1%

Structure (SMILES): CCCCCCOC(=O)c1ccccc1C(=O)OCCCCCC [Beispiel 35, Phthalsäuredihexylester]
- Kornzahl der Ähre bei freier Bestäubung [1]: 33,6
- Kornzahl der Ähre im Isolator [1]: 0,0
- Prozentsatz der Sterilität [1]: 100,0%
- Prozentsatz des Ansetzens der Körner bei freier Bestäubung [1]: 91,8%

Structure (SMILES): CC(C)COC(=O)c1ccccc1C(=O)OCC(C)C [Beispiel 36, Phthalsäurediisobutylester]
- Kornzahl der Ähre bei freier Bestäubung [1]: 31,7
- Kornzahl der Ähre im Isolator [1]: 0,0
- Prozentsatz der Sterilität [1]: 100,0%
- Prozentsatz des Ansetzens der Körner bei freier Bestäubung [1]: 86,6%

Structure (SMILES): CCCCOC(=O)c1ccccc1C(=O)OCCCC [Beispiel 74, Phthalsäuredibutylester]
- Kornzahl der Ähre bei freier Bestäubung [2]: 42,5
- Kornzahl der Ähre im Isolator [2]: 0,0
- Prozentsatz der Sterilität [2]: 100,0%
- Prozentsatz des Ansetzens der Körner bei freier Bestäubung [2]: 94,9%

Structure (SMILES): CC1C=CCCC1C(=O)O (stereo not drawn) [Beispiel 75, Kaliumsalz der 2-Methyl-3-zyklohexenkarbonsäure]
- Kornzahl der Ähre bei freier Bestäubung [2]: 43,0
- Kornzahl der Ähre im Isolator [2]: 0,0
- Prozentsatz der Sterilität [2]: 100,0%
- Prozentsatz des Ansetzens der Körner bei freier Bestäubung [2]: 95,0%

Structure (SMILES): CCCCOC(=O)c1ccccc1C(=O)OCCCC [Beispiel 103, Phthalsäuredibutylester]
- Ansetzen der Achänen bei freier Bestäubung ([3]; Präparat 1,0 Masse%, 6,0 kg/ha): 82,3
- Prozentsatz der Sterilität ([3]; Präparat 1,0 Masse%, 6,0 kg/ha): 100,0%

Structure (SMILES): CCOC(=O)c1ccccc1C(=O)OCC [Beispiel 104, Phthalsäurediäthylester]
- Ansetzen der Achänen bei freier Bestäubung ([3]; Präparat 1,0 Masse%, 6,0 kg/ha): 80,0
- Prozentsatz der Sterilität ([3]; Präparat 1,0 Masse%, 6,0 kg/ha): 100,0%

Structure (SMILES): CC1C=CCCC1C(=O)O (stereo not drawn) [Beispiel 105, Kaliumsalz der 2-Methyl-3-zyklohexenkarbonsäu-re]
- Ansetzen der Achänen bei freier Bestäubung ([3]; Präparat 1,0 Masse%, 6,0 kg/ha): 85,0
- Prozentsatz der Sterilität ([3]; Präparat 1,0 Masse%, 6,0 kg/ha): 100,0%

Structure (SMILES): CC1C=CCCC1C(=O)O (stereo not drawn) [Beispiel 106, Natriumsalz der 2-Methyl-3-zyklohexenkarbonsäure]
- Ansetzen der Achänen bei freier Bestäubung ([3]; Präparat 1,0 Masse%, 6,0 kg/ha): 84,1
- Prozentsatz der Sterilität ([3]; Präparat 1,0 Masse%, 6,0 kg/ha): 100,0%

Structure (SMILES): COC(=O)C1CCC=CC1C (stereo not drawn) [Beispiel 107, 2-Methyl-3-zyklo-hexenkarbonsäuremethylester]
- Ansetzen der Achänen bei freier Bestäubung [3, 8]: 83,8
- Prozentsatz der Sterilität [3, 8]: 100,0%

Structure (SMILES): CCCCOC(=O)c1ccccc1C(=O)OCCCC [Beispiel 108, Phthalsäuredibutylester]
- Ansetzen der Achänen bei freier Bestäubung ([4]; Präparat 0,2 Masse%, 1,2 kg/ha): 83,5
- Prozentsatz der Sterilität ([4]; Präparat 0,2 Masse%, 1,2 kg/ha): 100,0%

Structure (SMILES): CCOC(=O)c1ccccc1C(=O)OCC [Beispiel 109, Phthalsäurediäthylester]
- Ansetzen der Achänen bei freier Bestäubung ([4]; Präparat 0,1 Masse%, 0,6 kg/ha): 82,5
- Prozentsatz der Sterilität ([4]; Präparat 0,1 Masse%, 0,6 kg/ha): 100,0%

Structure (SMILES): CC1C=CCCC1C(=O)O (stereo not drawn) [Beispiel 110, Kaliumsalz der 2-Methyl-3-zyklohexenkarbonsäure]
- Ansetzen der Achänen bei freier Bestäubung ([4]; Präparat 0,1 Masse%, 0,6 kg/ha): 85,5
- Prozentsatz der Sterilität ([4]; Präparat 0,1 Masse%, 0,6 kg/ha): 100,0%

Structure (SMILES): CC1C=CCCC1C(=O)O (stereo not drawn) [Beispiel 111, Natriumsalz der. 2-Methyl-3-zyklohexen-karbonsäure]
- Ansetzen der Achänen bei freier Bestäubung ([4]; Präparat 1,0 Masse%, 6,0 kg/ha): 85,0
- Prozentsatz der Sterilität ([4]; Präparat 1,0 Masse%, 6,0 kg/ha): 100,0%

Structure (SMILES): COC(=O)C1CCC=CC1C (stereo not drawn) [Beispiel 112, 2-Methyl--3-zyklohexenkarbonsäuremethylester]
- Ansetzen der Achänen bei freier Bestäubung [4, 9]: 85,0
- Prozentsatz der Sterilität [4, 9]: 100,0%

Structure (SMILES): CCCCOC(=O)c1ccccc1C(=O)OCCCC [Beispiel 113, Phthalsäuredibutylester]
- Ansetzen der Achänen bei freier Bestäubung ([5]; Präparat 0,2 Masse%, 1,2 kg/ha): 61,5
- Prozentsatz der Sterilität ([5]; Präparat 0,2 Masse%, 1,2 kg/ha): 100,0%

Structure (SMILES): CC1C=CCCC1C(=O)[O-].[K+] (stereo not drawn) [Beispiel 114, Kaliumsalz der 2-Methyl-3-zyklohexenkarbonsäure]
- Ansetzen der Achänen bei freier Bestäubung ([5]; Präparat 0,1 Masse%, 0,6 kg/ha): 62,9
- Prozentsatz der Sterilität ([5]; Präparat 0,1 Masse%, 0,6 kg/ha): 100,0%

Structure (SMILES): COC(=O)C1CCC=CC1C (stereo not drawn) [Beispiel 115, 2-Methyl--3-zyklohexenkarbonsäuremethylester]
- Ansetzen der Achänen bei freier Bestäubung [5, 9]: 65,7
- Prozentsatz der Sterilität [5, 9]: 100,0%

Structure (SMILES): CCOC(=O)c1ccccc1C(=O)OCC [Beispiel 116, Phthalsäurediäthylester]
- Ansetzen der Achänen bei freier Bestäubung ([5]; Präparat 0,2 Masse%, 1,2 kg/ha): 64,6
- Prozentsatz der Sterilität ([5]; Präparat 0,2 Masse%, 1,2 kg/ha): 100,0%

Structure (SMILES): CC1C=CCCC1C(=O)O (stereo not drawn) [Kaliumsalz der 2-Methyl-3-zyklohexenkarbonsäure]
- LD50 [6]: 7660 mg/kg

Structure (SMILES): CCCCOC(=O)c1ccccc1C(=O)OCCCC [Phthalsäuredibutylester]
- LD50 [7]: 2840 mg/kg
- LD50 ([6]; weiße Ratten, einmalige Einführung in den Magen (route printed for Phthalsäuredibutylester), read-out: LD50): 6670 mg/kg
